{
  "source": "patent US10688063B2",
  "about": "“Treating and/or preventing insulin-resistance related weight gain” (University of South Florida, priority 2013, dated 2020)",
  "key": {"[1]": {"assay": "Glucose tolerance, serum parameters, body weight, food intake, liver and abdominal fat in HFF mice", "format": "in vivo, mouse", "protocol": "Briefly, […] body weight was injected intraperitoneally. After the glucose injection, blood glucose levels were measured at 0, 30, 60, 90 and 120 minutes post-injection. 15 minutes prior to killing, mice were injected with or without insulin (1 U/kg body weight). Serum glucose, triglycerides, and serum cholesterol were measured using methods generally known in the art. Liver triglycerides were also measured using methods generally known in the art. Over the 10 weeks, body weight and food intake were measured weekly. Overall change in bodyweight was also evaluated. Additionally, epididymal plus retroperitoneal fat (also abbreviated PG/PN fat) was measured and evaluated as g/100 g of body weight. After killing, liver tissue samples were sectioned and prepared for Oil red O staining by methods generally known in the art. Samples were Oil Red O stained to observe hepatic fat contents."}, "Akt2": {"molecular_target": "T1, Akt2 (Mus musculus, UniProt Q60823)", "T1 construct": "from tissue; host or cells: mouse liver and muscle", "T1 sequence (Q60823 whole entry)": "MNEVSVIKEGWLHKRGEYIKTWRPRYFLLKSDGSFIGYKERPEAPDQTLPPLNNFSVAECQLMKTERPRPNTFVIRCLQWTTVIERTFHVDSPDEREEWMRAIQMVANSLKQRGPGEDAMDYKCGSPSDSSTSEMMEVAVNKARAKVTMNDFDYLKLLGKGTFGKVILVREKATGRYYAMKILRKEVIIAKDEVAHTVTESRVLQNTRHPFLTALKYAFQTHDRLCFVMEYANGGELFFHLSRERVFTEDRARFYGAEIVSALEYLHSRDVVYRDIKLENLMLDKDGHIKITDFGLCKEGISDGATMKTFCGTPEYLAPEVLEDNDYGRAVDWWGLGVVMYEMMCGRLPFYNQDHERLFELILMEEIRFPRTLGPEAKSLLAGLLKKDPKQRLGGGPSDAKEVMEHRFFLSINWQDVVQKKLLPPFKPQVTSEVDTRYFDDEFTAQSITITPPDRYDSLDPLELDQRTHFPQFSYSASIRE", "assay": "Akt2 activity in liver and muscle of HFF mice, 10 weeks treatment", "format": "in vivo", "settings": "daily s.c. 10 weeks"}, "[2]": {"tested_on": "SREBP-1c, FAS, PEPCK, G6Pase", "assay": "Hepatic mRNA and protein levels of lipogenic and gluconeogenic enzymes in HFF mice", "format": "in vivo, mouse", "settings": "10 weeks, ad libitum-fed", "protocol": "(§1) Post mortem, liver tissue was removed and examined for immunoreactivity of the indicated signaling factors.\nNuclear preparations were also prepared as described in Sajan et al. 2009. Diabetologia. 52:1197-1207. Western analysis was conducted to evaluate the indicated immunoreactive proteins as in Example 7, except in this Example, rabbit polyclonal anti-GAPDH antiserum, rabbit polyclonal anti-FAS antiserum, rabbit polyclonal anti-PEPCK antiserum, rabbit polyclonal anti-G6Pase antiserum (Santa Cruz Biotechnologies, Santa Cruz, Calif.), and mouse monoclonal anti-SREBP-1 antibodies (Lab Vision Corp., Freemont, Calif.) were used to detect the indicated proteins."}, "aPKC [3]": {"tested_on": "aPKC", "assay": "aPKC activity in liver and muscle of high fat fed (HFF) mice, 10 weeks treatment", "format": "in vivo, mouse", "settings": "daily s.c. 10 weeks"}, "FoxO1, WD40/ProF": {"tested_on": "FoxO1, WD40/ProF", "assay": "Hepatic Ser256-FoxO1 phosphorylation and aPKC/Akt in WD40/ProF immunoprecipitates in HFF mice", "format": "in vivo, mouse", "settings": "10 weeks", "protocol": "as §1\nFor the results shown in FIG. 10A, liver cell lysates were prepared as previously described. Phosphorylated FoxO1 and un-phosphorylated FoxO1 were analyzed using western blotting as previously described except rabbit anti-phospho-Ser^256-FoxO1 antisera and anti-FoxO1 antiserum was used.\nFor the results in FIG. 10B, the indicated immunoreactive proteins were analyzed in the immunopercipitates via western blot as previously described except that rabbit anti-aPKC-λ/ι, FoxO1, or WD40/ProF antisera were used."}, "[4]": {"tested_on": "Ser473-Akt, Ser9-GSK3β, Thr555/560-PKC-λ/ζ, Thr2448-mTOR", "assay": "Hepatic phosphorylation of Ser473-Akt, Ser9-GSK3β, Thr555/560-PKC-λ/ζ, Thr2448-mTOR in HFF mice (Western)", "format": "in vivo, mouse", "settings": "10 weeks", "protocol": "as §1\nTissue Preparation: To prepare cell lysates, liver and muscle tissue samples were homogenized in ice-cold buffer containing 0.25 mol/l sucrose, 20 mmol/l Tris/HCl (pH, 7.5), 2 mmol/l EGTA, 2 mmol/l EDTA, 1 mmol/l phenlysulfonlyfluoride (PMSF), 20 μg/ml leupeptin, 10 μg/ml aprotinin, 2 mmol/l Na4P2O7, 2 mmol/l Na3VO4, 2 mmol/l NaF, and 1 μmol/l microcystin, and then supplemented with 1% TritonX-100, 0.6% Nonidet and 150 mmol/l NaCl, and cleared by low-speed centrifugation.\nWestern Analysis: Western analysis for the indicated signaling factors and GAPDH (endogenous control) were conducted as described in Sajan and Farese. 2012 Diabetologia. 55:1446-1457, Standaert et al. 2004. J. Biol. Chem. 279:24929-24934, Sajan et al. 2012. Metabolism. 61:459-469, Sajan et al. 2009. Diabetologia. 52:1197-1207, Sajan et al. 2009. J. Lipid Res. 50:1133-1145, and Sajan et al. 2013. Diabetologia. 56:2507-2516 using […] anti-phospho-Ser^473-Akt antiserum, rabbit anti-glyceraldehyde-phosphate dehydrogenase (GAPDH) antiserum, rabbit anti-WD40-ProF antiserum, and rabbit anti-aPKC antiserum (Santa Cruz Biotechnologies, Santa Cruz, Calif.); rabbit anti-phospho-Thr560/555 PKC-ζ/λ/ι antiserum (Invitrogen, Carlsbad, Calif.); rabbit anti-p-Ser^256-FoxO1 and anit-FoxO1 antiserum (Abnova, Walnut, Calif.); mouse monoclonal anti-PKC-λ/ι antibodies (Transduction Antibodies, Bedford, Mass.); and rabbit anti-phospho-Ser^9-GSK3β antiserum, rabbit anti-phosphoSer^[…]-mTOR antiserum, and mouse anti-Akt antibodies (Cell Signaling Technologies, Danvers, Mass.). Samples from experimental groups were compared on the same blots and corrected for recovery as needed by measurement of GAPDH immunoreactivity."}, "aPKC [5]": {"tested_on": "aPKC", "assay": "aPKC activity in brains of heterozygous muscle-specific PKC-λ knockout mice (Western)", "format": "in vivo, mouse", "settings": "treated for 8 days", "protocol": "Standard lab mice (“control” or “con” mice) and heterozygous muscle-specific PKC-λ knockout mice were fed standard chow containing 10% fat. Some mice were treated for 8 days with ICAPP. Some mice were acutely treated with insulin (1 U/kg body weight administered intraperitoneally) 15 minutes prior to killing. Brain tissues were collected and prepared for phospho-protein analysis. Activity/activation of aPKC was assessed by Western blot analyses of phospho-protein immunoreactivity followed by quantitative scanning of the blots."}, "aPKC [6]": {"tested_on": "aPKC", "assay": "Effect of ceramide on aPKC immunoprecipitated from liver lysates of LF and HF fed mice", "format": "biochemical, mouse", "protocol": "Standard (C57BI/6/SV129) mice consumed a standard low-fat or high-fat diet for 10 weeks. At 10 weeks mice were treated with or without insulin for 15 min prior to killing. Liver cell lysates were prepared as in Example 5 and aPKC activity assay was performed on the aPKC immunoprecipitate as in Example 5, except here the activity assays were carried out in the presence of the indicated concentrations of ceramide. Additionally, the levels of ceramide and sphingomyelin species in lipid extracts prepared from the liver cell lysates. Ceramide and sphingomyelin species were measured by liquid chromatography tandem mass spectrometry analysis of the lipid extracts of the liver lysates."}, "[7]": {"settings": "toward, not fully to, normal levels"}},
  "data": [
    {"compound": "NC(=O)c1ncn(C2CC(COP(=O)(O)O)C(O)C2O)c1N", "note": "(stereo not drawn) [ICAP]", "values": [
      {"measurement": "HFF-induced increases in abdominal fat depots", "setting": "[1]; 10 weeks", "value": "improved"},
      {"measurement": "food intake", "setting": "[1]; 10 weeks", "value": "without altering"},
      {"measurement": "increases in liver triglycerides and fat content", "setting": "[1]; 10 weeks", "value": "largely prevented"},
      {"measurement": "increases in serum triglycerides and cholesterol levels", "setting": "[1]; 10 weeks", "value": "largely prevented"},
      {"measurement": "weight gain", "setting": "[1]; 10 weeks", "value": "largely prevented"},
      {"measurement": "fasting insulin levels", "setting": "[1]; still modestly elevated", "value": "improved"},
      {"measurement": "glucose tolerance, basal glucose levels (fasting and fed), acute effects of insulin on serum glucose", "setting": "[1]; to levels indistinguishable from control chow-fed mice", "value": "improved"},
      {"measurement": "hepatic Akt2 activity", "setting": "Akt2; ICAP 1 mg/kg, ACPD 10 mg/kg", "value": "increased further"},
      {"measurement": "muscle Akt2 activity", "setting": "Akt2; [7]", "value": "increased"},
      {"measurement": "hepatic mRNA levels of SREBP-1c, FAS, PEPCK, G6Pase versus control/low-fat fed mice", "setting": "[2]", "value": "not significantly different"},
      {"measurement": "hepatic protein levels of SREBP-1c, FAS, PEPCK, G6Pase versus control/low-fat fed mice", "setting": "[2]", "value": "not significantly different"},
      {"measurement": "resting and insulin-stimulated hepatic aPKC activity", "setting": "aPKC [3]; ICAP 1 mg/kg, ACPD 10 mg/kg, to control levels", "value": "diminished"},
      {"measurement": "muscle aPKC activity", "setting": "aPKC [3]; [7]", "value": "increased"},
      {"measurement": "WD40/ProF-associated Akt activity", "setting": "FoxO1, WD40/ProF; HFF mice liver", "value": "increased"},
      {"measurement": "aPKC binding to WD40/ProF", "setting": "FoxO1, WD40/ProF; HFF mice liver", "value": "diminished"},
      {"measurement": "basal/resting and insulin-stimulated hepatic FoxO1 phosphorylation", "setting": "FoxO1, WD40/ProF; HFF mice", "value": "fully or partially restored"},
      {"measurement": "hepatic phosphorylation of Ser9-GSK3β and Ser2448-mTOR", "setting": "[4]", "value": "not altered"},
      {"measurement": "insulin-stimulated Akt2 activity in liver (Ser473-Akt phosphorylation)", "setting": "[4]", "value": "increased"},
      {"measurement": "resting Akt2 activity in liver (Ser473-Akt phosphorylation)", "setting": "[4]", "value": "did not alter"},
      {"measurement": "basal/resting and exogenous insulin-stimulated hepatic aPKC activities (Thr555/560 phosphorylation)", "setting": "[4]; to levels of control low fat fed mice", "value": "reduced"}
    ]},
    {"compound": "NC(=O)c1ncn([C@@H]2C[C@H](COP(=O)(O)O)[C@@H](O)[C@H]2O)c1N", "note": "[ICAPP]", "values": [
      {"measurement": "aPKC activity in the brain", "setting": "aPKC [5]", "value": "decreased"}
    ]},
    {"compound": "ceramide", "values": [
      {"measurement": "activity of aPKC immunoprecipitated from liver lysates", "setting": "aPKC [6]; HFF mice", "value": "only a weak effect"},
      {"measurement": "activity of aPKC immunoprecipitated from liver lysates", "setting": "aPKC [6]; HFF mice treated acutely with insulin", "value": "diminished activity"},
      {"measurement": "activity of aPKC immunoprecipitated from liver lysates", "setting": "aPKC [6]; LFF/control mice", "value": "strongly activated"}
    ]}
  ]
}
